Reference: ChEMBL document CHEMBL1123951, “Triazolines. 14. 1,2,3-Triazolines and triazoles, a new class of anticonvulsants. Drug design and structure-activity relationships” (J Med Chem, 1988)

What was measured:
[1] = Protective index (PI), anticonvulsant activity, ratio of TD50/ED50 value in maximal electroconvulsive shock seizure (MES) test; format: ADME, organism-based; conditions: mouse, in vivo
[2] = species: Mus musculus; experiment: Neurological deficit in mouse measured by rotarod test; format: functional
[3] = species: Mus musculus; experiment: Anticonvulsant activity in mice, measured by maximal electroshock seizure (MES) test.; format: functional
[4] = test system: Mus musculus; experiment: Anticonvulsant activity in mice, measured by subcutaneous pentylenetetrazole seizure (scMet) test.; format: functional; conditions: sc
[5] = Protective index (PI),anticonvulsant activity, ratio of TD50/ED50 value in scMet test; format: ADME, organism-based; conditions: mouse, in vivo
[6] = Protective index (Pi) was measured as the ratio of TD50/ED50 value in MES test; format: ADME

Row | Compound | selectivity ratio [1] | TD50 [2] | ED50 [3] | ED50 [4] | selectivity ratio [5] | selectivity ratio [6]
1 | c1ccc(N2N=NCC2c2ccncc2)cc1 (configuration not stated) | 3.6 | 590 mg/kg | 165 mg/kg | 107 mg/kg | 5.6 | –
2 | Fc1ccc(-n2nncc2-c2cccnc2)cc1 | 2.5 | 168 mg/kg | 74.6 mg/kg | 47.9 mg/kg | 3.5 | –
3 | FC(F)(F)c1ccc(N2N=NCC2c2ccncc2)cc1 (configuration not stated) | > 2.9 | > 2000 mg/kg | 689 mg/kg | 421 mg/kg | > 4.8 | –
4 | FC(F)(F)c1ccc(-n2nncc2-c2cccnc2)cc1 | 4.1 | 379 mg/kg | 92.3 mg/kg | 90.5 mg/kg | 4.2 | –
5 | Brc1ccc(-n2nncc2-c2cccnc2)cc1 | 5.7 | 496 mg/kg | 87.2 mg/kg | 40.6 mg/kg | 12.2 | –
6 | c1ccc(-n2nncc2-c2ccncc2)cc1 | 2 | 157 mg/kg | 78.8 mg/kg | 73.7 mg/kg | 2.1 | –
7 | c1ccc(-n2nncc2-c2cccnc2)cc1 | 1.7 | 133 mg/kg | 76.4 mg/kg | 39.7 mg/kg | 3.3 | –
8 | Clc1cccc(-n2nncc2-c2ccncc2)c1 | 1.8 | 68.7 mg/kg | 38 mg/kg | 29.2 mg/kg | 2.4 | –
9 | CCCC(CCC)C(=O)O [VALPROIC ACID] | – | – | 272 mg/kg | 149 mg/kg | – | –
10 | CCC1(C)CC(=O)NC1=O (configuration not stated) [ETHOSUXIMIDE] | – | 441 mg/kg | – | 130 mg/kg | – | –
11 | c1ccc(-n2nncc2-c2ccccn2)cc1 | 2.1 | 87.9 mg/kg | 41.1 mg/kg | 25.6 mg/kg | 3.4 | –
12 | FC(F)(F)c1cccc(N2N=NCC2c2ccncc2)c1 (configuration not stated) | 2.63 | 137 mg/kg | 52.1 mg/kg | 51 mg/kg | 2.69 | –
13 | Clc1ccc(N2N=NCC2c2ccncc2)cc1 (configuration not stated) | 4.4 | 1130 mg/kg | 257 mg/kg | – | 26 | –
14 | Fc1ccc(-n2nncc2-c2ccccn2)cc1F | 3.1 | 123 mg/kg | 62.5 mg/kg | 123 mg/kg | 1.6 | –
15 | CCC1(c2ccccc2)C(=O)NC(=O)NC1=O [PHENOBARBITAL] | – | 69 mg/kg | – | – | – | –
16 | FC(F)(F)c1cccc(-n2nncc2-c2ccncc2)c1 | 0.99 | 68 mg/kg | 68.2 mg/kg | 44.7 mg/kg | 1.52 | –
17 | Clc1ccc(-n2nncc2-c2ccccn2)cc1 | 2.5 | 234 mg/kg | 95.2 mg/kg | 50.4 mg/kg | 4.6 | –
18 | Fc1ccc(N2N=NCC2c2ccncc2)cc1 (configuration not stated) | 2.5 | 586 mg/kg | 239 mg/kg | 203 mg/kg | 2.9 | –
19 | Brc1ccc(-n2nncc2-c2ccccn2)cc1 | 3.9 | 265 mg/kg | 68 mg/kg | 88.6 mg/kg | 3 | –
20 | Clc1ccc(-n2nncc2-c2ccccc2)cc1 | 2 | 466 mg/kg | 233 mg/kg | 95.2 mg/kg | 4.9 | –
21 | Clc1ccc(-n2nncc2-c2cccnc2)cc1 | 3.7 | 245 mg/kg | 65.8 mg/kg | 26.9 mg/kg | 9.1 | –
22 | Fc1ccc(-n2nncc2-c2ccncc2)cc1 | 2 | 181 mg/kg | 91.6 mg/kg | 119 mg/kg | 1.5 | –
23 | COc1ccc(-n2nncc2-c2ccncc2)cc1 | – | 545 mg/kg | 311 mg/kg | – | – | 1.75
